Results published in patent US9067941B2, “Fused heterocyclic azaindane carboxamide CGRP receptor antagonists” (Merck Sharp & Dohme Corp., priority 2010, dated 2015).

The molecules below were run against T1, recombinant human CL receptor/RAMP1 (Homo sapiens, UniProt O60894+Q16602) (assay: Recombinant receptor binding assay (125I-hCGRP displacement, membranes of HEK 293 cells)). Details: 10 pM 125I-hCGRP, 3 h at room temperature.
T1 construct: expressed in transfected cells; membranes
T1 sequence (Q16602 23-461): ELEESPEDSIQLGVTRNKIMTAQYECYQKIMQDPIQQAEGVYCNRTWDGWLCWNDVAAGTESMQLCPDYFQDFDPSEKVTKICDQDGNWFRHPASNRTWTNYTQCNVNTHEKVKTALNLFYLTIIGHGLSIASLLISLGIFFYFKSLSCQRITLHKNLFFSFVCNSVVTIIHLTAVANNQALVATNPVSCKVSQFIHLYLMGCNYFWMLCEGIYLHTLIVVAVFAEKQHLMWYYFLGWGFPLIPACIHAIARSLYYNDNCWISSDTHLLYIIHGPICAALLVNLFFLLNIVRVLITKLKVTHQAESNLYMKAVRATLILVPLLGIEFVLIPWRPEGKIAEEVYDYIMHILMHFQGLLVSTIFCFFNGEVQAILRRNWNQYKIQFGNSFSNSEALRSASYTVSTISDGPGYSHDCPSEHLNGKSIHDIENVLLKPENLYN
T1 sequence (O60894 27-148): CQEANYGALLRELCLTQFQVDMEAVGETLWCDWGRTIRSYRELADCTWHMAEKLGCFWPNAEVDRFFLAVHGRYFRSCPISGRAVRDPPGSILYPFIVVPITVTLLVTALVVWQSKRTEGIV
Experimental: RECOMBINANT RECEPTOR: Human CL receptor (Genbank accession number L76380) was subcloned into the expression vector pIREShyg2 (BD Biosciences Clontech) as a 5′NheI and 3′ PmeI fragment. Human RAMP1 (Genbank accession number A3001014) was subcloned into the expression vector pIRESpuro2 (BD Biosciences Clontech) as a 5′NheI and 3′NotI fragment. HEK 293 cells (human embryonic kidney cells; ATCC #CRL-1573) were cultured in DMEM with 4.5 g/L glucose, 1 mM sodium pyruvate and 2 mM glutamine supplemented with 10% fetal bovine serum (FBS), 100 units/mL penicillin and 100 μg/mL streptomycin, and maintained at 37° C. and 95% humidity. Cells were subcultured by treatment with 0.25% trypsin with 0.1% EDTA in HBSS. Stable cell line generation was accomplished by co-transfecting 10 μg of DNA with 30 μg Lipofectamine 2000 (Invitrogen) in 75 cm^2 flasks. CL receptor and RAMP1 expression constructs were co-transfected in equal amounts. Twenty-four hours after transfection the cells were diluted and selective medium (growth medium+300 μg/mL hygromycin and 1 μg/mL puromycin) was added the following day. A clonal cell line was generated by single cell deposition utilizing a FACS Vantage SE (Becton Dickinson). Growth medium was adjusted to 150 μg/mL hygromycin and 0.5 μg/mL puromycin for cell propagation.
RECOMBINANT RECEPTOR BINDING ASSAY: Cells expressing recombinant human CL receptor/RAMP1 were washed with PBS and harvested in harvest buffer containing 50 mM HEPES, 1 mM EDTA and Complete™ protease inhibitors (Roche). The cell suspension was disrupted with a laboratory homogenizer and centrifuged at 48,000 g to isolate membranes. The pellets were resuspended in harvest buffer plus 250 mM sucrose and stored at −70° C. For binding assays, 20 μg of membranes were incubated in 1 mL binding buffer (10 mM HEPES, pH 7.4, 5 mM MgCl2, and 0.2% BSA) for 3 h at room temperature containing 10 pM ^125I-hCGRP (GE Healthcare) and antagonist. The assay was terminated by filtration through 96-well GFB glass fiber filter plates (PerkinElmer) that had been blocked with 0.05% polyethyleneimine. The filters were washed 3 times with ice-cold assay buffer (10 mM HEPES, pH 7.4, and 5 mM MgCl2). Scintillation fluid was added and the plates were counted on a Topcount (Packard). Non-specific binding was determined and the data analysis was carried out with the apparent dissociation constant (Ki) determined by using a non-linear least squares fitting the bound CPM data to the equation below:
[formula] Where Y is observed CPM bound, Ymax is total bound counts, Ymin is non specific bound counts, (Ymax−Ymin) is specific bound counts, % Imax is the maximum percent inhibition, % I min is the minimum percent inhibition, radiolabel is the probe, and the Kd is the apparent dissociation constant for the radioligand for the receptor as determined by hot saturation experiments.
In the case of `O=C(N[C@H]1C[C@@H](c2cccc(F)c2F)Cn2c(CC(F)(F)F)nnc21)c1cnc2c(c1)C[C@@]1(C2)C(=O)Nc2ncccc21` [Example 1.24, (6S)—N-[(6S,8S)-6-(2,3-Difluorophenyl)-3-(2,2,2-trifluoroethyl)-5,6,7,8-tetrahydro[1,2,4]triazolo[4,3-a]pyridin-8-yl]-2′-oxo-1′,2′,5,7-tetrahydrospiro[cyclopenta[b]pyridine-6,3′-pyrrolo[2,3-b]pyridine]-3-carboxamide], the Ki is reported as 0.19 nM. In the case of `C[C@@H]1[C@H](c2ccccc2)C[C@H](NC(=O)c2cnc3c(c2)C[C@@]2(C3)C(=O)Nc3ncncc32)c2ncc(C(C)(C)O)n21` [Example 2.1, (6S)—N-[(5R,6S,8S)-3-(2-Hydroxypropan-2-yl)-5-methyl-6-phenyl-5,6,7,8-tetrahydroimidazo[1,2-a]pyridin-8-yl]-6′-oxo-5,6′,7,7′-tetrahydrospiro[cyclopenta[b]pyridine-6,5′-pyrrolo[2,3-d]pyrimidine]-3-carboxamide], the Ki is reported as 0.56 nM. With `C[C@@H]1[C@H](c2ccccc2)C[C@H](NC(=O)c2cnc3c(c2)C[C@@]2(C3)C(=O)Nc3ncccc32)c2nnc(C3(C(F)(F)F)CC3)n21` [Example 1.27, (6S)—N-{(5R,6S,8S)-5-Methyl-6-phenyl-3-[1-(trifluoromethyl)cyclopropyl]-5,6,7,8-tetrahydro[1,2,4]triazolo[4,3-a]pyridin-8-yl}-2′-oxo-1′,2′,5,7-tetrahydrospiro[cyclopenta[b]pyridine-6,3′-pyrrolo[2,3-b]pyridine]-3-carboxamide] the Ki was 0.36 nM. `C[C@@H]1[C@H](c2ccccc2)C[C@H](NC(=O)c2cnc3c(c2)C[C@@]2(C3)C(=O)Nc3ncccc32)c2ncc(C(C)(C)O)n21` [Example 1.26, (6S)—N-[(5R,6S,8S)-3-(2-Hydroxypropan-2-yl)-5-methyl-6-phenyl-5,6,7,8-tetrahydroimidazo[1,2-a]pyridin-8-yl]-2′-oxo-1′,2′,5,7-tetrahydrospiro[cyclopenta[b]pyridine-6,3′-pyrrolo[2,3-b]pyridine]-3-carboxamide] showed a Ki of 0.14 nM. With `O=C(N[C@H]1C[C@@H](c2cccc(F)c2F)Cn2c(CC(F)(F)F)cnc21)c1cnc2c(c1)C[C@@]1(C2)C(=O)Nc2ncccc21` [Example 1.2, (6S)—N-[(6S,8S)-6-(2,3-Difluorophenyl)-3-(2,2,2-trifluoroethyl)-5,6,7,8-tetrahydroimidazo[1,2-a]pyridin-8-yl]-2′-oxo-1′,2′,5,7-tetrahydrospiro[cyclopenta[b]pyridine-6,3′-pyrrolo[2,3-b]pyridine]-3-carboxamide] the Ki was 0.05 nM. With `C[C@@H]1[C@H](c2ccccc2)C[C@H](NC(=O)c2cnc3c(c2)C[C@@]2(C3)C(=O)Nc3ncccc32)c2ncc(CC(F)(F)F)n21` [Example 1.25] the Ki was 0.06 nM. `COC(C)(C)c1cnc2n1C[C@H](c1cccc(F)c1F)C[C@@H]2NC(=O)c1cnc2c(c1)C[C@@]1(C2)C(=O)Nc2ncccc21` [Example 1.11, (6S)—N-[(6S,8S)-6-(2,3-Difluorophenyl)-3-(2-methoxypropan-2-yl)-5,6,7,8-tetrahydroimidazo[1,2-a]pyridin-8-yl]-2′-oxo-1′,2′,5,7-tetrahydrospiro[cyclopenta[b]pyridine-6,3′-pyrrolo[2,3-b]pyridine]-3-carboxamide] was tested, and the Ki was 0.02 nM.
